{"source": "paper PMC10459870", "about": "“A New Diterpenoid of Indonesian Scoparia dulcis Linn: Isolation and Cytotoxic Activity against MCF-7 and T47D Cell Lines” (Molecules, 2023)", "key": {"PPAR-γ": {"system": "PPAR-γ", "details": "reported in the literature; read-out: EC50, agonistic activity against PPAR-γ; cited from earlier work"}, "T47D breast cancer cells [1]": {"system": "T47D breast cancer cells", "test": "MTT cytotoxic activity assay, T47D", "type": "cell-based", "details": "for IC50: Homo sapiens, T47D, MTT, 24 h treatment, mean ± SD; for Selectivity Index (SI) T47D: IC50 Vero / IC50 T47D", "protocol": "(§1) A cytotoxic test was performed to obtain an overview of the activity of the sample on the inhibition of cancer cells. The parameter used was the inhibition concentration of 50% (IC50), a concentration that inhibits cells by 50% of the cell population. The IC50 value was calculated from the results of a linear regression between log concentration and the percentage of cell viability.\n(§2) The cell lines were obtained from the Parasitology Laboratory, Faculty of Medicine, Universitas Gadjah Mada, Yogyakarta, Indonesia. Each MCF-7 and T47D cell was cultured with complete media, namely, DMEM media for MCF-7 and RPMI for T47D, which contained 10% FBS, 2% penicillin–streptomycin, and 0.5% fungzon. Cultures were stored in a 5% CO2 incubator and for harvesting cells using trypsin, as well as sample solvents using DMSO.\n(§3) Compound (1) was tested for its cytotoxic activity using an MTT assay on MCF-7 and T47D breast cancer cells. Briefly, 1 × 10^4 MCF-7 and T47D cells/wells were grown in 96 well plates and incubated for 24 h in a CO2 incubator. The cells were treated with sample concentrations of 200, 100, 50, 25, 12.5, and 6.25 μg/mL for MCF-7 and 50, 25, 12.5, 6.25, 3.125, and 1.5625 μg/mL for T47D and then incubated for 24 h in a CO2 incubator. After incubation, the condition of the cells was observed under a microscope. The cell media was discarded followed by washing with phosphate-buffered saline (PBS). Then 0.5 mg/mL MTT reagent, up to 100 µL, was added to each well followed by incubation again for 4 h in a CO2 incubator. The cells were observed under a microscope, and after the formazan was clear, 100 µL of SDS stopper reagent was added in 0.01 N HCl. The plate was incubated at room temperature in a dark place for 1 × 24 h, then the absorbance was read with a microplate reader at a wavelength of 595 nm. Analysis of the absorbance data for the cytotoxic test was carried out by calculating the percentage of viable cells using the following formula.\n(§4) IC50 values were calculated using a linear regression between sample concentrations and the percent (%)cell viability."}, "Vero cells": {"system": "Vero cells", "test": "MTT cytotoxic activity assay, Vero", "type": "cell-based", "details": "Chlorocebus sabaeus, mean ± SD"}, "[2]": {"system": "MCF-7 breast cancer cells", "test": "MTT cytotoxic activity assay, MCF-7", "type": "cell-based", "details": "for IC50: Homo sapiens, MCF7, MTT, 24 h treatment, mean ± SD; for Selectivity Index (SI) MCF-7: IC50 Vero / IC50 MCF-7", "protocol": "as §1, §2, §3, §4"}, "T47D breast cancer cells [3]": {"system": "T47D breast cancer cells", "test": "Apoptosis induction, Annexin V/PI flow cytometry, T47D", "type": "cell-based", "protocol": "(§5) The method used in this study was the detected Annexin V method using flow cytometry, which allowed for observing the induction of apoptosis that occurs in cells following treatment. Annexin V is a member of a family of phospholipid-binding proteins that are strongly negatively charged on the cell membrane. Cell death resulting from apoptosis or necrosis can be differentiated using propidium iodide (PI) staining intercalation with DNA [24].\n(§6) This test was carried out on isolated samples (compound (1)). Culture confluent cells were distributed to 6-well plates, each 2000 µL (for treatment and for cell control). After 24 h of incubation, concentration series were made. The cells were washed with PBS, and 1000 µL of the sample solution with a certain concentration series was put in the well. For the control cells, 1000 µL of culture medium was added well. The cells were again incubated for 24 h in the CO incubator. After incubation, media from the 6-well plates were inserted into a conical tube, then washed with 1000 µL PBS and put into the same conical tube. Then, 200 µL trypsin-EDTA 0.25% was added and incubated for 3 min. Then, 1000 µL of culture medium was also added and resuspended until the cells were released one by one. The cells are then transferred to a conical and centrifuged at 2000 rpm for 3 min. For cell cycle observations, a deep cell precipitates conical tube covered with aluminum foil was dissolved with 400 µL of the PI reagent containing 1 mg/mL PI, 10 mg/mL RNAse, and 0.1% (v/v) Triton-X 100. The cells were resuspended and incubated for 5 min, and then the cell suspension was transferred into a flow cytometry tube for analysis (Ayers et al., 2011). For observations of apoptosis, the supernatant was discarded, then 100 µL of Annexin-V-FLUOS staining was added consisting of 100 µL binding buffer, 2 µL Annexin V, and 2 µL PI. This was followed by incubation in a dark space for 10 min and then analysis using a flow cytometer."}, "[4]": {"system": "MCF-7 breast cancer cells", "test": "Cell cycle distribution by flow cytometry (PI), MCF-7", "type": "cell-based", "protocol": "(§7) Cell cycle inhibition and apoptosis induction tests were carried out on compound (1). The analysis was performed using the flow cytometry method to determine the percentage of living cells in each phase of the cell cycle.\nas §6"}, "T47D breast cancer cells [5]": {"system": "T47D breast cancer cells", "test": "Cell cycle distribution by flow cytometry (PI), T47D", "type": "cell-based", "protocol": "as §7\nas §6, with “The cells were resuspended and incubated for 5 min, and then the cell suspension was transferred into a flow cytometry tube for analysis (Ayers et al., 2011). For observations of apoptosis, the supernatant was discarded, then 100 µL of Annexin-V-FLUOS staining was added consisting of 100 µL binding buffer, 2 µL Annexin V, and 2 µL PI. This was followed by incubation in a dark space for 10 min and then analysis using a flow cytometer.” left out"}, "[6]": {"system": "MCF-7 breast cancer cells", "test": "Apoptosis induction, Annexin V/PI flow cytometry, MCF-7", "type": "cell-based", "protocol": "as §5, §6"}}}
{"smiles": "C=C1[C@@H](OC(C)=O)[C@H](OC(=O)c2ccccc2)[C@H]2[C@@](C)(CCC[C@]2(C)C(=O)O)[C@H]1CC/C(C)=C/CO", "note": "[Compound (3), 4-epi-7α-O-acetylscoparic acid A]", "values": [{"measurement": "EC50", "setting": "PPAR-γ", "value": "900 ± 300", "unit": "nM"}]}
{"smiles": "COc1cccc2c1C(=O)c1c(O)c3c(c(O)c1C2=O)C[C@@](O)(C(=O)CO)C[C@@H]3O[C@H]1C[C@H](N)[C@H](O)[C@H](C)O1", "note": "[Doxorubicin, reference compound]", "values": [{"measurement": "IC50", "setting": "T47D breast cancer cells [1]", "value": "35.1 ± 3.14", "unit": "µg/mL"}, {"measurement": "Selectivity Index (SI) T47D", "setting": "T47D breast cancer cells [1]", "value": "< 3"}, {"measurement": "IC50", "setting": "Vero cells", "value": "69.5 ± 6.8", "unit": "µg/mL"}, {"measurement": "IC50", "setting": "[2]", "value": "16.6 ± 5.85", "unit": "µg/mL"}, {"measurement": "Selectivity Index (SI) MCF-7", "setting": "[2]", "value": 4.2}]}
{"smiles": "C=C1CC(OC(=O)c2ccccc2)C2C(C)(CO)CC(O)CC2(C)C1CCC(C)=CCO", "note": "(stereo not drawn) [Compound (1), 2α-hydroxyscopadiol]", "values": [{"measurement": "IC50", "setting": "T47D breast cancer cells [1]", "value": "< 3.12", "unit": "µg/mL"}, {"measurement": "Selectivity Index (SI) T47D", "setting": "T47D breast cancer cells [1]", "value": "> 3"}, {"measurement": "cytotoxic activity class, T47D", "setting": "T47D breast cancer cells [1]; grouped according to IC50", "value": "very strong (“very strong cytotoxic”: IC50 < 10 µg/mL)"}, {"measurement": "Apoptosis against T47D, % Parent, P3 (early apoptosis)", "setting": "T47D breast cancer cells [3]; 1/2 IC50, 24 h", "value": 6.1, "unit": "%"}, {"measurement": "Apoptosis against T47D, % Parent, P4 (late apoptosis)", "setting": "T47D breast cancer cells [3]; 1/2 IC50, 24 h", "value": 3.0, "unit": "%"}, {"measurement": "Apoptosis against T47D, % Parent, P3 (early apoptosis)", "setting": "T47D breast cancer cells [3]; 1/4 IC50, 24 h", "value": 5, "unit": "%"}, {"measurement": "Apoptosis against T47D, % Parent, P3 (early apoptosis)", "setting": "T47D breast cancer cells [3]; 1 IC50, 24 h", "value": 24.8, "unit": "%"}, {"measurement": "Apoptosis against T47D, % Parent, P4 (late apoptosis)", "setting": "T47D breast cancer cells [3]; 1 IC50, 24 h", "value": 2.9, "unit": "%"}, {"measurement": "IC50", "setting": "Vero cells", "value": "36.5 ± 1.41", "unit": "µg/mL"}, {"measurement": "% Parent, G1, Cell Cycles against MCF-7", "setting": "[4]; 1/2 IC50, 24 h", "value": 76.5, "unit": "%"}, {"measurement": "% Parent, G2-M, Cell Cycles against MCF-7", "setting": "[4]; 1/2 IC50, 24 h", "value": 17.2, "unit": "%"}, {"measurement": "% Parent, G1, Cell Cycles against MCF-7", "setting": "[4]; 1 IC50, 24 h", "value": 78.4, "unit": "%"}, {"measurement": "IC50", "setting": "[2]", "value": "70.6 ± 1.54", "unit": "µg/mL"}, {"measurement": "Selectivity Index (SI) MCF-7", "setting": "[2]", "value": 0.51}, {"measurement": "cytotoxic activity class, MCF-7", "setting": "[2]; grouped according to IC50", "value": "strong (“strong cytotoxic” IC50 is 10–100 µg/mL)"}, {"measurement": "% Parent, G1, Cell Cycles against T47D", "setting": "T47D breast cancer cells [5]; 1/2 IC50, 24 h", "value": 50.9, "unit": "%"}, {"measurement": "% Parent, G1, Cell Cycles against T47D", "setting": "T47D breast cancer cells [5]; 1 IC50, 24 h", "value": 53.3, "unit": "%"}, {"measurement": "Apoptosis against MCF-7, % Parent, P3 (early apoptosis)", "setting": "[6]; 1/2 IC50, 24 h", "value": 33.5, "unit": "%"}, {"measurement": "Apoptosis against MCF-7, % Parent, P4 (late apoptosis)", "setting": "[6]; 1/2 IC50, 24 h", "value": 16.8, "unit": "%"}, {"measurement": "Apoptosis against MCF-7, % Parent, P4 (late apoptosis)", "setting": "[6]; 1/4 IC50, 24 h", "value": 15.1, "unit": "%"}, {"measurement": "Apoptosis against MCF-7, % Parent, P3 (early apoptosis)", "setting": "[6]; 1 IC50, 24 h", "value": 80.7, "unit": "%"}, {"measurement": "Apoptosis against MCF-7, % Parent, P4 (late apoptosis)", "setting": "[6]; 1 IC50, 24 h", "value": 11.7, "unit": "%"}]}
